The test system of data set [1] is people. The settings on record: most people; cited from earlier work.
Data set [2] concerns rats. The experiment in a line: Median lethal dose (LD50) orally in rats. The class given is in vivo. The settings on record: extrapolated from oral rat LD50 to a 100 kg adult.
Data set [3] relates to rats. Particulars: orally in rats; cited from earlier work.

These results are taken from patent publication US10517803B2, “Individual's sensitivity to fluoride poisoning” (priority 2017, dated 2019).

`F` [Fluoride]: the “highest level of daily nutrient intake likely to pose no risk of adverse health effects” value in data set [1] is recorded as 10 mg/day.

For `F[Si-2](F)(F)(F)(F)F.[Na+].[Na+]` [sodium fluorosilicate], in data set [2], the “median lethal dose (LD50), corresponding amount for a 100 kg adult” value is 12.5 g. Further, in data set [3], the “median lethal dose (LD50)” value was 125 mg/kg.
